For 13 compounds, T/C results are on record in PubChem BioAssay AID230 (DTP/NCI, 2004).

Values joined by “and” are separate entries in the source; they are usually repeats but may differ in a detail not shown here. Equal entries are not always repeated. Inconclusive results and toxic doses are left out.

The test system of this experiment is C3H/He mice, Gardner lymphosarcoma 6C3HED ip, survival T/C. As to the kind of experiment: NCI In Vivo Anticancer Drug Screen. Data for tumor model Lymphosarcoma Gardner 6C3HED (intraperitoneal) in C3H/He mice. The following applies: higher = longer survival. How it is done:
The antitumor activity of compounds was measured in mice bearing transplantable tumors. Survival or tumor size were measured and the results are expressed as the measurement made in the treated group (T) divided by the measurement made in the vehicle treated control group (C). The tumor model used in this assay is Lymphosarcoma Gardner 6C3HED (intraperitoneal) in C3H/He mice

The mark [1] stands for this setting: endpoint: survival time, mean or median, dose: 1.25 mg/kg/injection, schedule: Q01DX010 (ip), vehicle: saline.
Where [2] appears, read: endpoint: survival time, mean or median, dose: 2.5 mg/kg/injection, schedule: Q01DX010 (ip), vehicle: saline.
[3] abbreviates: endpoint: survival time, mean or median, dose: 5.0 mg/kg/injection, schedule: Q01DX010 (ip), vehicle: saline.
The mark [4] stands for this setting: endpoint: survival time, mean or median, dose: 10.0 mg/kg/injection, schedule: Q01DX010 (ip), vehicle: saline.
The mark [5] stands for this setting: endpoint: survival time, mean or median, dose: 12.5 mg/kg/injection, schedule: Q01DX010 (ip), vehicle: saline.
Where [6] appears, read: endpoint: survival time, mean or median, dose: 25.0 mg/kg/injection, schedule: Q01DX010 (ip), vehicle: saline.
The mark [7] stands for this setting: endpoint: survival time, mean or median, dose: 50.0 mg/kg/injection, schedule: Q01DX010 (ip), vehicle: saline.

Turning to `Nc1ncnc2c1ncn2C1OC(CO)C(O)C1O` (stereo not given), the T/C (endpoint: median survival time, dose: 12.5 mg/kg/injection, schedule: Q01DX003 (ip), vehicle: saline) is 90 % of control; the T/C (endpoint: median survival time, dose: 12.5 mg/kg/injection, schedule: Q11DX018 (ip), vehicle: saline with Tween-80) was 96 % of control; the T/C (endpoint: median survival time, dose: 12.5 mg/kg/injection, schedule: Q12HX006 (ip), vehicle: saline) is 108 % of control; the T/C (endpoint: median survival time, dose: 25.0 mg/kg/injection, schedule: Q01DX003 (ip), vehicle: saline) was 95 % of control; the T/C (endpoint: median survival time, dose: 25.0 mg/kg/injection, schedule: Q12HX006 (ip), vehicle: saline) is 112 % of control; the T/C (endpoint: median survival time, dose: 50.0 mg/kg/injection, schedule: Q01DX003 (ip), vehicle: saline) was 100 % of control. In addition, the T/C (endpoint: median survival time, dose: 50.0 mg/kg/injection, schedule: Q12HX006 (ip), vehicle: saline) is 120 % of control.
Consider `O=C(O)c1[nH]c(=O)[nH]c(=O)c1F`, for which the T/C by setting is: under setting [1], 111 % of control; under setting [2], 95 % of control and 107 % of control; under setting [3], 92 % of control and 103 % of control; under setting [4], 96 % of control.
As for `CC(N)(CC(=O)O)C(=O)O` (stereo not given), the T/C reads like this: (endpoint: median survival time, dose: 3.12 mg/kg/injection, schedule: Q01DX009 (ip), vehicle: saline) 90 % of control and 98 % of control; (endpoint: median survival time, dose: 6.25 mg/kg/injection, schedule: Q01DX009 (ip), vehicle: saline) 96 % of control; (endpoint: median survival time, dose: 12.5 mg/kg/injection, schedule: Q01DX009 (ip), vehicle: saline) 92 % of control and 99 % of control; (endpoint: median survival time, dose: 25.0 mg/kg/injection, schedule: Q01DX009 (ip), vehicle: saline) 86 % of control; (endpoint: median survival time, dose: 50.0 mg/kg/injection, schedule: Q01DX009 (ip), vehicle: saline) 101 % of control.
For `CCC1=C(c2ccc(OC)cc2)CCC(C(=O)O)C1C` (stereo not given), the T/C is 96 % of control (endpoint: survival time, mean or median, dose: 12.5 mg/kg/injection, schedule: Q01DX010 (sc), vehicle: steriod suspending solution); 107 % of control (endpoint: survival time, mean or median, dose: 25.0 mg/kg/injection, schedule: Q01DX010 (sc), vehicle: steriod suspending solution); 92 % of control (endpoint: survival time, mean or median, dose: 50.0 mg/kg/injection, schedule: Q01DX010 (sc), vehicle: steriod suspending solution); 100 % of control (endpoint: survival time, mean or median, dose: 100.0 mg/kg/injection, schedule: Q01DX010 (sc), vehicle: steriod suspending solution).
`COS(C)(=O)=O`: the T/C under setting [5] is 119 % of control, the T/C under setting [6] was 300 % of control and the T/C under setting [7] was 300 % of control.
Regarding `Nc1ncnc2c1ccn2C1OC(CO)C(O)C1O` (stereo not given), where the note is “endpoint: survival time, mean or median, dose: 0.25 mg/kg/injection, schedule: Q01DX010 (ip), vehicle: saline”, the T/C was 90 % of control.
In the case of `CC[n+]1c(-c2ccccc2)c2cc(N)ccc2c2ccc(N)cc21`, the T/C reads like this: under setting [1], 117 % of control; under setting [2], 121 % of control; under setting [3], 117 % of control; under setting [4], 121 % of control.
As for `Cc1cn(C2OC(CO)C(O)C2O)c(=O)[nH]c1=O` (stereo not given), the T/C reads like this: (endpoint: survival time, mean or median, dose: 62.5 mg/kg/injection, schedule: Q01DX010 (ip), vehicle: saline) 100 % of control; (endpoint: survival time, mean or median, dose: 125.0 mg/kg/injection, schedule: Q01DX010 (ip), vehicle: saline) 96 % of control and 100 % of control; (endpoint: survival time, mean or median, dose: 250.0 mg/kg/injection, schedule: Q01DX010 (ip), vehicle: saline) 100 % of control; (endpoint: survival time, mean or median, dose: 500.0 mg/kg/injection, schedule: Q01DX010 (ip), vehicle: saline) 103 % of control.
Take `CC1CCOS(=O)O1` (stereo not given): the T/C under setting [2] is 93 % of control; the T/C under setting [3] was 93 % of control; the T/C under setting [4] is 92 % of control and 103 % of control; the T/C (endpoint: survival time, mean or median, dose: 20.0 mg/kg/injection, schedule: Q01DX010 (ip), vehicle: saline) was 89 % of control and 96 % of control.
In the case of `Cc1cc2nc3c(=O)[nH]c(=O)nc-3n(CC(O)C(O)C(O)C(O)CO)c2cc1C` (stereo not given), the T/C under setting [5] was 97 % of control; the T/C under setting [7] is 100 % of control; the T/C (endpoint: survival time, mean or median, dose: 100.0 mg/kg/injection, schedule: Q01DX010 (ip), vehicle: saline) is 87 % of control and 100 % of control.
`C[C@H]1C(=O)O[C@@H]2CCN3CC=C(COC(=O)[C@](C)(O)[C@@]1(C)O)[C@H]23`: the T/C by setting is: (endpoint: survival time, mean or median, dose: 3.13 mg/kg/injection, schedule: Q01DX010 (ip), vehicle: saline) 100 % of control and 107 % of control; (endpoint: survival time, mean or median, dose: 6.25 mg/kg/injection, schedule: Q01DX010 (ip), vehicle: saline) 93 % of control and 103 % of control; under setting [5], 100 % of control and 103 % of control; under setting [6], 111 % of control.
As for `NC(CC(=O)NO)C(=O)O` (stereo not given), the T/C was 96 % of control (endpoint: median survival time, dose: 100.0 mg/kg/injection, schedule: Q01DX005 (ip), vehicle: water); 107 % of control (endpoint: median survival time, dose: 200.0 mg/kg/injection, schedule: Q01DX005 (ip), vehicle: water); 115 % of control (endpoint: median survival time, dose: 400.0 mg/kg/injection, schedule: Q01DX005 (ip), vehicle: water); 111 % of control (endpoint: median survival time, dose: 800.0 mg/kg/injection, schedule: Q01DX005 (ip), vehicle: water).
On to `O[C@H](CN1CC1)[C@@H](O)CN1CC1`, for which the T/C was 103 % of control (endpoint: survival time, mean or median, dose: 125.0 micrograms/kg/injection, schedule: Q01DX010 (ip), vehicle: saline); 114 % of control and 203 % of control (endpoint: survival time, mean or median, dose: 250.0 micrograms/kg/injection, schedule: Q01DX010 (ip), vehicle: saline); 169 % of control (endpoint: survival time, mean or median, dose: 500.0 micrograms/kg/injection, schedule: Q01DX010 (ip), vehicle: saline).
